The values that follow come from publication PMC4068261 (Journal of natural products, 2014).

The test system of test [1] is HIV-1. The experiment in a line: microbe, parasite or virus in culture. It is filed as cell-based. Particulars: Human immunodeficiency virus 1, HOG.R5, read-out: anti-HIV activity IC50.
Test [2] relates to HIV-1. Particulars: previous discovery; cited from earlier work.

For `COc1cc(O)cc2c1C(=O)C[C@@H](c1ccccc1)O2` [Compound 5, alpinetin], the IC50 with HIV-1 [1] amounted to 130 µM. Regarding `C=Cc1c(C)c2cc3nc(c4c5[nH]c(cc6nc(cc1[nH]2)C(C)=C6CC)c(C)c5C(=O)[C@@H]4C(=O)OC)[C@@H](CCC(=O)O)[C@@H]3C` [pheophorbide a], in the test with HIV-1 [2], the “anti-HIV activity (in words)” value is “potent anti-HIV agent”.

For orientation: IC50 means the concentration at which inhibition is half-maximal.
